ChEMBL document CHEMBL1201862, “PubChem BioAssay data set” (2004)
Active and inactive are the calls of the source.

What was measured:
Escherichia coli [1] = experiment: microbe, parasite or virus in culture
Escherichia coli [2] = experiment: microbe, parasite or virus in culture; remark: listed apart in the source
Hexokinase-1 = biological target: T1, Hexokinase-1 (Homo sapiens, UniProt P19367); experiment: hexokinase 1 activity inhibitors, potency – biochemical, set 2, resazurin fluorescence coupled readout, selectivity assay for HKDC1 inhibitor project, SAR follow-up (AID 588356); format: functional
T1 sequence (P19367 whole entry): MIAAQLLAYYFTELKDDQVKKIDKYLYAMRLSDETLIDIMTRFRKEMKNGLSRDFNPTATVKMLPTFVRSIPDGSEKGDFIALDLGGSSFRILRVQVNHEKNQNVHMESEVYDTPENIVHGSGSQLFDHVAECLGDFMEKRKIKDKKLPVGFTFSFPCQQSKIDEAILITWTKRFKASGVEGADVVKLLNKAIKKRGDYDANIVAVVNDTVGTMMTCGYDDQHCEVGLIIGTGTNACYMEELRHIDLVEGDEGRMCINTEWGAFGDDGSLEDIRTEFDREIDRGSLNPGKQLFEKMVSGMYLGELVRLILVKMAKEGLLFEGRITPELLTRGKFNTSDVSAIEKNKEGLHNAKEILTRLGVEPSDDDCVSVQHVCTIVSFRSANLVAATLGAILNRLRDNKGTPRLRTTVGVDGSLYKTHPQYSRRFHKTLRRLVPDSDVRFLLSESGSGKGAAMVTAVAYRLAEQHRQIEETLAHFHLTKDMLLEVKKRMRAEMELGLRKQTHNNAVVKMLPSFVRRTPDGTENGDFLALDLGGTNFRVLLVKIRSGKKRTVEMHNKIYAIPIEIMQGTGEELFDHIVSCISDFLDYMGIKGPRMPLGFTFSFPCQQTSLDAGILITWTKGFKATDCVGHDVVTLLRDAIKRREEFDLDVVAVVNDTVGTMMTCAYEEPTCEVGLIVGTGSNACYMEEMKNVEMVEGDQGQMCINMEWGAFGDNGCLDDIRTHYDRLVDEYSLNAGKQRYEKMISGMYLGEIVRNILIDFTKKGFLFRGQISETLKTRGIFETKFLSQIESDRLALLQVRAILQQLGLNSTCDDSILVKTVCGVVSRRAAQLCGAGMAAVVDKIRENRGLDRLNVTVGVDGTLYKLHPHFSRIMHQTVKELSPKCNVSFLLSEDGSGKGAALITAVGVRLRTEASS

Hexokinase HKDC1 = biological target: T2, Hexokinase HKDC1 (Homo sapiens, UniProt Q2TB90); experiment: analog inhibition of human HKDC1 activity – biochemical, set 2, SAR follow-up (AID 588355); format: functional
T2 sequence (Q2TB90 whole entry): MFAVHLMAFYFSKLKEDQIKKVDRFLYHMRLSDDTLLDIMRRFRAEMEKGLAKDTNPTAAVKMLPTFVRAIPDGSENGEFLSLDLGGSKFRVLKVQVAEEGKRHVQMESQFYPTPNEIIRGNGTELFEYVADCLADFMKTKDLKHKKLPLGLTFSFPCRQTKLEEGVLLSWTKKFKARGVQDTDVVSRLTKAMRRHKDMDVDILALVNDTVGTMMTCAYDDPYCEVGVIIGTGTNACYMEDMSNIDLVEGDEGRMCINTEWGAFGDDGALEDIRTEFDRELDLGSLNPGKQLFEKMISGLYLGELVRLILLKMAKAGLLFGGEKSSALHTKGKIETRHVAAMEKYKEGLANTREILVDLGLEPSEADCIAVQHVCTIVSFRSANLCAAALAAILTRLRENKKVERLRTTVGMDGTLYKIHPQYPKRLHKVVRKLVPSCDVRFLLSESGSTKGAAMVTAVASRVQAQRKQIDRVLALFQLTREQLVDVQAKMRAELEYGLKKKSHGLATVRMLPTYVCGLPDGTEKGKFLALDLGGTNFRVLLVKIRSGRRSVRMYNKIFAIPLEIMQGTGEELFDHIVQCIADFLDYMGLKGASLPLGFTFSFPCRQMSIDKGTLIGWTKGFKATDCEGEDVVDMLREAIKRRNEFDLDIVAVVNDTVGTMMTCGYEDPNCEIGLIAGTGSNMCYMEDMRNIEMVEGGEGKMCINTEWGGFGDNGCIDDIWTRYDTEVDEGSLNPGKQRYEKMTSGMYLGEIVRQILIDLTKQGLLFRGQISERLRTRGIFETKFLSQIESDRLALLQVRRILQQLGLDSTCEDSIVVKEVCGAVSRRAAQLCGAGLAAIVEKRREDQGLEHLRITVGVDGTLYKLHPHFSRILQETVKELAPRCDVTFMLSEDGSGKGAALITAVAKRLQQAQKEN

[3] = biological target: Dual specificity tyrosine-phosphorylation-regulated kinase 1A (Rattus norvegicus, UniProt Q63470); format: biochemical, Homo sapiens

Row | Structure (SMILES) | IC50 (Hexokinase-1) | IC50 (Hexokinase HKDC1) | also measured
1 | COC(=O)c1c(NC(=O)C(=O)NCCCN2CCOCC2)sc2c1CCCC2 | – | – | AC50 (Escherichia coli [1]): 19.8 µM (active)
2 | CC(C)Cc1ccc(CN2CCCC(NC(=O)Cn3cnnn3)C2)cc1 (configuration not stated) | – | – | AC50 (Escherichia coli [2]): 103 µM (active)
3 | COc1ccc(O)c(-c2cc(-c3ccccc3Cl)n[nH]2)c1 | – | – | AC50 [3]: 2.77 µM (active)

Continued, in another order:

Row | IC50 (Hexokinase-1) | IC50 (Hexokinase HKDC1) | Structure (SMILES) | also measured
4 | > 80 µM (inactive) | > 80 µM (inactive) | Cc1ccccc1N1C(=O)c2ccccc2C1Nc1ccc(F)cc1 (configuration not stated) | –
5 | > 80 µM (inactive) | > 80 µM (inactive) | O=c1c2cc(F)ccc2nc(/C=C/c2cccnc2)n1Cc1ccccc1 | –
